This is an account of results in ChEMBL document CHEMBL4765383, “Amphiphilic aminoglycosides with increased selectivity for inhibition of connexin 43 (Cx43) hemichannels” (Eur J Med Chem, 2020).

Test [1] addresses Gap junction alpha-1 protein (Homo sapiens) (UniProt P17302). Briefly: Inhibition of human Cx43 expressed in kanamycin-resistant Escherichia coli LB2003 cells in medium containing […] K+ and 10 uM IPTG by measuring cell growth at 15 uM after 18 hrs by growth complementation assay. Also on record: scale not given: the % may be the effect or the level left.
Test [2] has the same target. Briefly: Inhibition of human Cx43 expressed in kanamycin-resistant Escherichia coli LB2003 cells in medium containing […] K+ and 10 uM IPTG by measuring cell growth at 50 uM after 18 hrs by growth complementation assay. Also on record: scale not given: the % may be the effect or the level left.
Test [3] addresses Gap junction beta-2 protein (Homo sapiens) (UniProt P29033). In words: Inhibition of human Cx26 expressed in kanamycin-resistant Escherichia coli LB2003 cells in medium containing […] K+ and 500 uM IPTG by measuring cell growth at 15 uM after 18 hrs by growth complementation assay. Also on record: scale not given: the % may be the effect or the level left.
For test [4] the target is unchanged. Briefly: Inhibition of human Cx26 expressed in kanamycin-resistant Escherichia coli LB2003 cells in medium containing […] K+ and 500 uM IPTG by measuring cell growth at 50 uM after 18 hrs by growth complementation assay. Further details: scale not given: the % may be the effect or the level left.
The nature of test [5]: Selectivity ratio of IC50 for inhibition of human Cx43 to IC50 for inhibition of human Cx26.

Gap junction alpha-1 protein (Homo sapiens), sequence (P17302 whole entry): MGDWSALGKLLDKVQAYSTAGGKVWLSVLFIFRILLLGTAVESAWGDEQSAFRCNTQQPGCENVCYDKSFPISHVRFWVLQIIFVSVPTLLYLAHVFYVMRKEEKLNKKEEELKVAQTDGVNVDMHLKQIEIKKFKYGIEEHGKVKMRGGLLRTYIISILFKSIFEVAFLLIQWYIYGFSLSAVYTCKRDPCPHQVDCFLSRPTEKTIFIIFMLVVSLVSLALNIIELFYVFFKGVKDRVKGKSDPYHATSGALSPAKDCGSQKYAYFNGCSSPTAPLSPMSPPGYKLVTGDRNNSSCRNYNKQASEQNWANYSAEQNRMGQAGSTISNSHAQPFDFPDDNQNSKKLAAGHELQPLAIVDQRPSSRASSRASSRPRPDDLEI

Turning to `NC[C@H]1O[C@H](O[C@H]2[C@H](O)[C@@H](O[C@H]3O[C@H](CNC(=O)c4ccccc4-c4c5ccc(=O)cc-5oc5cc(O)ccc45)[C@@H](O)[C@H](N)[C@H]3O)[C@H](N)C[C@@H]2N)[C@H](O)[C@@H](O)[C@@H]1O`, the Activity in test [1] was determined as 45.3%; in test [2], 55.1%; in test [3], 37.1%; in test [4] it was 81%.
For `NC[C@H]1O[C@H](O[C@H]2[C@H](O)[C@@H](O[C@H]3O[C@H](COc4ccc(-c5ccccc5)cc4)[C@@H](O)[C@H](N)[C@H]3O)[C@H](N)C[C@@H]2N)[C@H](O)[C@@H](O)[C@@H]1O`, in that order: 27.3%, 54.3%, 46.3% and 67.8%.
Consider `Cc1ccc(OC[C@H]2O[C@H](O[C@@H]3[C@@H](O)[C@H](O[C@H]4O[C@H](CN)[C@@H](O)[C@H](O)[C@H]4O)[C@@H](N)C[C@H]3N)[C@H](O)[C@@H](N)[C@@H]2O)cc1`, for which the Activity is 63.8% in test [1], 76.8% in test [2], 19.3% in test [3] and 28.2% in test [4]. Moreover, the Selectivity ratio in test [5] stood at 7.97.
Consider `COc1ccc(OC[C@H]2O[C@H](O[C@@H]3[C@@H](O)[C@H](O[C@H]4O[C@H](CN)[C@@H](O)[C@H](O)[C@H]4O)[C@@H](N)C[C@H]3N)[C@H](O)[C@@H](N)[C@@H]2O)cc1`, for which the Activity in test [1] amounted to 20%; in test [2], 34.8%; in test [3], 15.9%; in test [4] it was 36.5%.
`Cc1ccc(COC[C@H]2O[C@H](O[C@@H]3[C@@H](O)[C@H](O[C@H]4O[C@H](CN)[C@@H](O)[C@H](O)[C@H]4O)[C@@H](N)C[C@H]3N)[C@H](O)[C@@H](N)[C@@H]2OCc2ccc(C)cc2)cc1`: the Selectivity ratio in test [5] was 1.39.
As to `NC[C@H]1O[C@H](O[C@H]2[C@H](O)[C@@H](O[C@H]3O[C@H](COCc4ccc(Cl)cc4)[C@@H](OCc4ccc(Cl)cc4)[C@H](N)[C@H]3O)[C@H](N)C[C@@H]2N)[C@H](O)[C@@H](O)[C@@H]1O`, in test [5], the Selectivity ratio was 0.15.
On the same count and under the same terms, to `COc1ccc(COC[C@H]2O[C@H](O[C@@H]3[C@@H](O)[C@H](O[C@H]4O[C@H](CN)[C@@H](O)[C@H](O)[C@H]4O)[C@@H](N)C[C@H]3N)[C@H](O)[C@@H](N)[C@@H]2OCc2ccc(OC)cc2)cc1` belongs 3.17.
Take `COc1ccc2cc(C(=O)NC[C@H]3O[C@H](O[C@H]4[C@H](O)[C@@H](O[C@H]5O[C@H](CO)[C@@H](O)[C@H](N)[C@H]5O)[C@H](N)C[C@@H]4N)[C@H](O)[C@@H](O)[C@@H]3O)ccc2c1`: the Activity came out at 42.1% in test [1], 45.1% in test [2], 15.1% in test [3] and 27.9% in test [4].
Consider `N[C@@H]1[C@@H](O)[C@@H](O[C@@H]2[C@@H](O)[C@H](O[C@H]3O[C@H](CNC(=O)c4ccccc4-c4c5ccc(=O)cc-5oc5cc(O)ccc45)[C@@H](O)[C@H](O)[C@H]3O)[C@@H](N)C[C@H]2N)O[C@H](CO)[C@H]1O`, for which the Activity in test [1] was 56.8%; in test [2], 83.4%; in test [3], 22.3%; in test [4], 79.6%. The Selectivity ratio in test [5] was 1.42.
Turning to `NC[C@H]1O[C@H](O[C@H]2[C@H](O)[C@@H](O[C@H]3O[C@H](COCc4ccc5ccccc5c4)[C@@H](OCc4ccc5ccccc5c4)[C@H](N)[C@H]3O)[C@H](N)C[C@@H]2N)[C@H](O)[C@@H](O)[C@@H]1O`, the Selectivity ratio in test [5] was found to be 1.07.
On to `N[C@@H]1[C@@H](O)[C@@H](O[C@@H]2[C@@H](O)[C@H](O[C@H]3O[C@H](CNC(=O)c4ccc5cc(O)ccc5c4)[C@@H](O)[C@H](O)[C@H]3O)[C@@H](N)C[C@H]2N)O[C@H](CO)[C@H]1O`, for which the Activity in test [1] was 34.1%; in test [2] it was 37.1%; in test [3], 4.7%; in test [4] it was 32.8%.
As for `CCCCCCC(=O)NC[C@H]1O[C@H](O[C@H]2[C@H](O)[C@@H](O[C@H]3O[C@H](CO)[C@@H](O)[C@H](N)[C@H]3O)[C@H](N)C[C@@H]2N)[C@H](O)[C@@H](O)[C@@H]1O`, the Activity in test [1] worked out at 18.5%; in test [2], 36%; in test [3], 22.5%; in test [4] it was 34.3%.
Consider `NC[C@H]1O[C@H](O[C@H]2[C@H](O)[C@@H](O[C@H]3O[C@H](COc4ccc([N+](=O)[O-])cc4)[C@@H](O)[C@H](N)[C@H]3O)[C@H](N)C[C@@H]2N)[C@H](O)[C@@H](O)[C@@H]1O`, for which the Activity in test [1] is 36.5%; in test [2] it was 49.3%; in test [3], 35.9%; in test [4], 62.6%.
As to `N[C@@H]1[C@@H](O)[C@@H](O[C@@H]2[C@@H](O)[C@H](O[C@H]3O[C@H](CNC(=O)c4cc(-c5ccccc5)nc5ccccc45)[C@@H](O)[C@H](O)[C@H]3O)[C@@H](N)C[C@H]2N)O[C@H](CO)[C@H]1O`, the Activity turned out to be 25.5% in test [1], 51% in test [2], 8% in test [3] and 22.8% in test [4].
`CCCCCCCCCCCC(=O)NC[C@H]1O[C@H](O[C@H]2[C@H](O)[C@@H](O[C@H]3O[C@H](CO)[C@@H](O)[C@H](N)[C@H]3O)[C@H](N)C[C@@H]2N)[C@H](O)[C@@H](O)[C@@H]1O`: the Activity in test [1] worked out at 53.6%; in test [2], 70.9%; in test [3] it was 16.4%; in test [4], 56.2%. Also, in test [5], the Selectivity ratio worked out at 6.88.
Regarding `NC[C@H]1O[C@H](O[C@H]2[C@H](O)[C@@H](O[C@H]3O[C@H](COCc4ccc(F)cc4)[C@@H](OCc4ccc(F)cc4)[C@H](N)[C@H]3O)[C@H](N)C[C@@H]2N)[C@H](O)[C@@H](O)[C@@H]1O`, the Selectivity ratio in test [5] amounted to 0.3.
With `NC[C@H]1O[C@H](O[C@H]2[C@H](O)[C@@H](O[C@H]3O[C@H](COc4ccc(Cl)cc4)[C@@H](O)[C@H](N)[C@H]3O)[C@H](N)C[C@@H]2N)[C@H](O)[C@@H](O)[C@@H]1O`, the Activity in test [1] is 50.3%; in test [2] it was 68.3%; in test [3] it was 44.4%; in test [4], 69.5%. In addition, the Selectivity ratio in test [5] turned out to be 1.93.
With `NC[C@H]1O[C@H](O[C@H]2[C@H](O)[C@@H](O[C@H]3O[C@H](COCc4cccc(-c5ccccc5)c4)[C@@H](OCc4cccc(-c5ccccc5)c4)[C@H](N)[C@H]3O)[C@H](N)C[C@@H]2N)[C@H](O)[C@@H](O)[C@@H]1O`, in test [5], the Selectivity ratio is 1.23.
As for `Cc1ccc(S(=O)(=O)OC[C@H]2O[C@H](O[C@@H]3[C@@H](O)[C@H](O[C@H]4O[C@H](CN)[C@@H](O)[C@H](O)[C@H]4O)[C@@H](N)C[C@H]3N)[C@H](O)[C@@H](N)[C@@H]2O)cc1`, the Activity was 38.1% in test [1], 51% in test [2], 26.8% in test [3] and 49.2% in test [4].
For `NC[C@H]1O[C@H](O[C@H]2[C@H](O)[C@@H](O[C@H]3O[C@H](COc4ccccc4)[C@@H](O)[C@H](N)[C@H]3O)[C@H](N)C[C@@H]2N)[C@H](O)[C@@H](O)[C@@H]1O`, in that order: 36%, 46.7%, 14.6% and 69.4%.
For the compound `CCCCCCCCCC(=O)NC[C@H]1O[C@H](O[C@H]2[C@H](O)[C@@H](O[C@H]3O[C@H](CO)[C@@H](O)[C@H](N)[C@H]3O)[C@H](N)C[C@@H]2N)[C@H](O)[C@@H](O)[C@@H]1O`, the Activity in test [1] stood at 44.4%; in test [2], 53.5%; in test [3] it was 16.1%; in test [4] it was 33.6%.
On to `N[C@@H]1[C@@H](O)[C@@H](O[C@@H]2[C@@H](O)[C@H](O[C@H]3O[C@H](CNC(=O)CCCc4cc5ccc6cccc7ccc(c4)c5c67)[C@@H](O)[C@H](O)[C@H]3O)[C@@H](N)C[C@H]2N)O[C@H](CO)[C@H]1O`, for which the Activity in test [1] worked out at 52.2%; in test [2], 69.6%; in test [3] it was 36.9%; in test [4] it was 79.2%. The Selectivity ratio in test [5] came to 2.16.
Taken in the same sequence, the figures for `NC[C@H]1O[C@H](O[C@H]2[C@H](O)[C@@H](O[C@H]3O[C@H](COc4ccc(-c5nc6ccccc6[nH]5)cc4)[C@@H](O)[C@H](N)[C@H]3O)[C@H](N)C[C@@H]2N)[C@H](O)[C@@H](O)[C@@H]1O` were 43.2%, 71.7%, 83.1%, 85.5% and 0.34.
As for `CCCCCCCC(=O)NC[C@H]1O[C@H](O[C@H]2[C@H](O)[C@@H](O[C@H]3O[C@H](CO)[C@@H](O)[C@H](N)[C@H]3O)[C@H](N)C[C@@H]2N)[C@H](O)[C@@H](O)[C@@H]1O`, the Activity in test [1] worked out at 17%; in test [2], 37.2%; in test [3], 14%; in test [4], 25.2%.
